Values belong to the compound of their own block, whether it stands above or below them.
Key:
[1] = test system: Recombinant NLRP3; test: Photo-affinity labelling of recombinant NLRP3, anti-PEG immunoblot (FIG. 9C); format: binding; settings: pre-incubation 20 mins, UV 365 nm, then ADS165
[2] = test system: NLRP3; test: D4D8T immunoprecipitation of NLRP3 from photo-labelled iBMDMs (FIG. 9D); settings: ADS165, ADS167 1 mM; MCC 50 μM; UV 365 nm 30 mins
[3] = molecular target: T1, recombinant full length NLRP1 (Homo sapiens, UniProt Q9C000); test: Photo-affinity labelling of recombinant full length NLRP1, anti-PEG immunoblot (FIG. 9E); format: binding; settings: pre-incubation, UV 365 nm, then ADS165
T1 sequence (Q9C000 1-1473): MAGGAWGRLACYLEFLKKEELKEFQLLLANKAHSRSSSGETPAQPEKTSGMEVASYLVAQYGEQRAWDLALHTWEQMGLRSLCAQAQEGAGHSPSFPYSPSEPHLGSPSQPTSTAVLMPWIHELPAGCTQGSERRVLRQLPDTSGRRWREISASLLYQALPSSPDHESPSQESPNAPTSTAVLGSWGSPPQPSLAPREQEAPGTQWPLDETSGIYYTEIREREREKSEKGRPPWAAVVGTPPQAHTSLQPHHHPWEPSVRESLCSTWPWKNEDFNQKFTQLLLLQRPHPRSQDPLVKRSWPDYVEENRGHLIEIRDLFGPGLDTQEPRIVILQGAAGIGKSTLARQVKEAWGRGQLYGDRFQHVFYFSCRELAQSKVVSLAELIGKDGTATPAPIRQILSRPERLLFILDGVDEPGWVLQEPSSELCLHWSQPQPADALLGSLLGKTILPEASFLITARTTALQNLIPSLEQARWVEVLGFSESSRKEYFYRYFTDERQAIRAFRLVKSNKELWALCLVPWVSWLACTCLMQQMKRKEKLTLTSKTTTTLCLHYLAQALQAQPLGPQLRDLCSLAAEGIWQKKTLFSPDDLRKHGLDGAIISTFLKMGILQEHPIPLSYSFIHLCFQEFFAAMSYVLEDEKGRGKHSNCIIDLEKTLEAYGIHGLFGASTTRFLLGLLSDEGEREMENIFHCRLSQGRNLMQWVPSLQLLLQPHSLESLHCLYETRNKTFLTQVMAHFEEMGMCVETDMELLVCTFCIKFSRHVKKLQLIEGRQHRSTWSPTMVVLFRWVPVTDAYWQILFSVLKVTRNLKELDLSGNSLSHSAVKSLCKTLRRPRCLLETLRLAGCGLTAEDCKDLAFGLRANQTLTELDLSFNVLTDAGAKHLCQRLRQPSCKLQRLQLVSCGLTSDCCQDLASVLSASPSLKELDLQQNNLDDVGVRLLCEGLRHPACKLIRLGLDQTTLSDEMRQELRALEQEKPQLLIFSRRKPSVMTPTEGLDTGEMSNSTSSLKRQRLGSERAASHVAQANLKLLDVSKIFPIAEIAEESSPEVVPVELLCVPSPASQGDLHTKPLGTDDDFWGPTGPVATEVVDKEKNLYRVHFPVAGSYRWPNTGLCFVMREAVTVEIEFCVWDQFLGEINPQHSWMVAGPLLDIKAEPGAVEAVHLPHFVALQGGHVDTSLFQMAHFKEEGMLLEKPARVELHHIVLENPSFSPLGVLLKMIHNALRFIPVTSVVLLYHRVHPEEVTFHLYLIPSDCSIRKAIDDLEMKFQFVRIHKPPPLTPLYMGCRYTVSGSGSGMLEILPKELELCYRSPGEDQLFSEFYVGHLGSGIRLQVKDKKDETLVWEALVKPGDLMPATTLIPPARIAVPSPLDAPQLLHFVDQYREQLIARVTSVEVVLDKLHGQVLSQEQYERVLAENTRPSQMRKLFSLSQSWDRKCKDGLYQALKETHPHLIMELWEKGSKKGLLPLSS
Protocol: FIGS. 9A-9F are a series of panels showing ADS032 (also referred to herein as “BT032”) directly binds to NLRP1 and NLRP3. FIGS. 9A and 9B are chemical structures of ADS165 and ADS167. […] ADS165 was then co-incubated for 20 mins and UV treated for 20 mins to cross-link associated compound and protein. Protein was separated by SDS-PAGE and immunoblotted (IB) with anti-PEG to visualize ADS165-linked protein. FIG. 9D: iBMDM cells stably expressing NLRP3-Flag were treated for 30 mins with ADS165, ADS167 (1 mM) or MCC955 (50 μM) for 30 mins, and irradiated with UV 365 nm for 30 mins. Cells were lysed with buffer and immunoprecipitation (IP) of NLRP3 performed with α-NLRP3 (D4D8T) antibody. Levels of precipitated (IP) and total cellular lysate (Input) NLRP3 were determined by immunoblotting with α-NLRP3 (Cryo-2) antibody. FIG. 9F: NLRP1-Flag was expressed in HEK293T cells (1×10^6) for 20 h and treated with ADS165 (1 mM) for 30 mins where indicated, followed by UV 365 nm for a further 30 mins. Cells were lysed with lysis buffer and […] immunoprecipitated with α-Flag (M2) antibody. Proteins were separated by SDS-PAGE and ADS165-linked NLRP1 identified by immunoblot with a-PEG, while total precipitated NLRP1 visualized by immunoblot with α-NLRP1 and total cell lysate by α-Flag. Data shown is representative of three independent experiments.
Next, it was determined whether ADSO32 could interact with NLRP1. […] To further investigate this interaction, ectopically expressed Flag-tagged NLRP1 was immunoprecipitated from cell lysates pretreated or not with ADS165 and exposed to UV light.

[4] = molecular target: T2, NLRP3 (Mus musculus, UniProt Q8R4B8); test: NLRP3-induced IL-1β secretion from iBMDMs, photo-affinity probes; format: cell-based; settings: data not shown
T2 construct: endogenous in cells; host or cells: iBMDMs
T2 sequence (Q8R4B8 whole entry): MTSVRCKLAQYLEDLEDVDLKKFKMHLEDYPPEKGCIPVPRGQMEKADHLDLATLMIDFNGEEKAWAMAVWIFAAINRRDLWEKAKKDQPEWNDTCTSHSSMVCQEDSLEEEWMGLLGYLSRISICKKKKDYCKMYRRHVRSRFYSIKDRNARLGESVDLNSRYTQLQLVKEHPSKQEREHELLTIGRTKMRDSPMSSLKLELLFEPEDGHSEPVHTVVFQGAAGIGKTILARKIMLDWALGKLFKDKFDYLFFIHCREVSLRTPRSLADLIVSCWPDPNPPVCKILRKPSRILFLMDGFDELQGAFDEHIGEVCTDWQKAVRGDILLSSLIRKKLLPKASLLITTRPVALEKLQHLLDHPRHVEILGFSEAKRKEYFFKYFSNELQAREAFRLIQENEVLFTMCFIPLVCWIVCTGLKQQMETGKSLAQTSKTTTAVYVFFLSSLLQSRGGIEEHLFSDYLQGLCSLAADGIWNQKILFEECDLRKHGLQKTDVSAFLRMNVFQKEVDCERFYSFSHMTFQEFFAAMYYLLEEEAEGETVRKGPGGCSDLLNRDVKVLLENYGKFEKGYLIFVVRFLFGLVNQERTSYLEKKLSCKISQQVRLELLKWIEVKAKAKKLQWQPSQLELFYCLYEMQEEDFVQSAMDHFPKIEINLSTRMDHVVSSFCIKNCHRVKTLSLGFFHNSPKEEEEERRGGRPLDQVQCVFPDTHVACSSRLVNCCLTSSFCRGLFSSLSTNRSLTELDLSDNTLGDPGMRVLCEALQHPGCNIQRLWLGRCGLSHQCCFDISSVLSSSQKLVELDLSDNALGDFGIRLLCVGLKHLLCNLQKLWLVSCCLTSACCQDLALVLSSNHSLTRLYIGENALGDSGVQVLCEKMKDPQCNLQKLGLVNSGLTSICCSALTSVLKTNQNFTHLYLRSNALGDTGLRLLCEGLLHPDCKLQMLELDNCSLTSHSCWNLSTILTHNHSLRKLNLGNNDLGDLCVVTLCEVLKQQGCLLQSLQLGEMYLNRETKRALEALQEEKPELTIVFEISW
Description: To verify interaction with target proteins, a photo-affinity labeling strategy (MacKinnon+Taunton, 2009) was developed where two modified versions of ADSO32 (1) containing an alkyne photoactivatable moiety linked with a PEG550 moiety to allow visualization (FIG. 9A) termed ADS165; and (2) ADSO32 linked with a diazirine photo-affinity label, (FIG. 9B) termed ADS167 were synthesized. Both photo-affinity labels covalently cross-link to molecular targets when exposed to ultraviolet light (365 nm).

[5] = test system: NLRP1 inflammasome; test: IL-1β secretion in macrophages challenged with L18-MDP (FIG. 7); format: cell-based, human; settings: 20, 100, 350 μM, L18-MDP 100 μg/mL 16 hours, secreted IL-1β
Description: (§1) In vitro stimulation of human macrophages.

[6] = molecular target: NLRP3 inflammasome (Mus musculus, UniProt Q8R4B8); test: IL-1β secretion (ELISA) in LPS-primed iBMDMs stimulated with silica or nigericin; format: cell-based, murine (C57BL/6); design: endogenous in cells; host or cells: immortalized wild-type C57BL/6 bone-marrow derived macrophages (iBMDMs), LPS-primed; settings: compared with probenecid in DMSO or PBS
Chain of NLRP3 inflammasome (Q8R4B8 whole entry): as above
Protocol: In vitro stimulation of murine macrophages. Immortalized wild-type C57BL/6 bone-marrow derived macrophages (iBMDMs) were grown in DMEM supplemented with 10% heat inactivated FBS and 2 mM glutamine. iBMDMs were seeded in 96-well plates 24 hours prior incubation with lipopolysaccharide (LPS; 100 ng/mL) for 3 hours. Cells were then incubated with a control probenecid compound (probenecid dissolved in DMSO (Prob/D), probenecid dissolved in PBS (Prob/P)) or one of the probenecid analogs of the present technology (BT032, BT132, BT133, BT134, BT135, BT136, BT137, BT138, BT139, or BT140) at concentrations of 300 μM, 150 μM, 30 μM, or 3 μM 1 hour prior to stimulation with NLRP3 inflammasome activators, silica ([…]) or nigericin (6 μM). After an additional 6 hours, cell supernatants were collected and levels of IL-1β were quantified by ELISA. These experiments were run in triplicate three times.

[7] = test system: NLRP1 inflammasome; test: IL-1β secretion in macrophages challenged with L18-MDP (FIG. 4C); format: cell-based, human; settings: BT032 20, 100 μM; MCC950 5 μM; L18-MDP 100 μg/ml 16 h
Description: as §1

competition with ADS165 interaction with NLRP1 [3]: could ablate interaction
efficacy relative to ADS032 (NLRP3-induced IL-1β secretion) [4]: reduced efficacy as compared to ADS032
SMILES: CCCCN(CCC)S(=O)(=O)c1ccc(-c2ccc(CCCC(=O)NCc3ccc(C4(C(F)(F)F)N=N4)cc3)cc2)cc1 [ADS167]
competition with ADS165 labelling of NLRP3 [1]: inhibited the ability of ADS165 to label NLPR3
D4D8T-mediated NLRP3 immunoprecipitation [2]: reduced the efficacy of D4D8T-mediated NLRP3 immunoprecipitation
NLRP3-induced IL-1β secretion from iBMDMs [4]: still able to inhibit NLRP3-induced IL-1β secretion

SMILES: CCCN(CCC)S(=O)(=O)c1ccc(N2CCC(CCCC(=O)O)CC2)cc1 [BT135, 4-(1-(4-(N,N-dipropylsulfamoyl)-phenyl)piperidin-4-yl)butanoic acid]
NLRP1 (L18-MDP)-induced inflammasome activation [5]: dose-dependently inhibited

SMILES: CCCN(CCC)S(=O)(=O)c1ccc(-c2nc(CCCC(=O)O)cs2)cc1 [BT136, 4-(2-(4-(N,N-dipropylsulfamoyl)phenyl)thiazol-4-yl)butanoic acid]
potency versus control probenecid compounds (IL-1β secretion) [6]: more potent than the control probenecid compounds
NLRP1 (L18-MDP)-induced inflammasome activation [5]: dose-dependently inhibited

competition with ADS165 interaction with NLRP1 [3]: no effect
SMILES: CC(C)(O)c1coc(S(=O)(=O)NC(=O)Nc2c3c(cc4c2CCC4)CCC3)c1 [MCC950, reference compound]
NLRP1 (L18-MDP)-induced inflammasome activation [7]: no impact

— US20260176232A1, “PROBENECID COMPOUNDS FOR THE TREATMENT OF INFLAMMASOME-MEDIATED DERMATOLOGICAL CONDITIONS” (Bacainn Biotherapeutics, Ltd., priority 2022, published 2026)
